Results as given in patent US20200054633A1 (priority 2017, published 2020).
Where two headings read alike, the source gives them in different places.

Settings: OST placebo, N=74
Excerpt: This study followed a randomized, double-blind, placebo-controlled, parallel-group, multicenter design.
Analysis set for safety: Safety Set included all subjects who received at least 1 dose of study drug.

## O=C(O)[C@H]1C2CCC(CC2)[C@@H]1Nc1nc(-c2c[nH]c3ncc(F)cc23)ncc1F [Compound (1), Pimodivir]
300 mg
  Any Serious TEAE: 0
  Any Serious TEAE at least possibly related to study medication: 0
  Any Severe (Grade 3) TEAE: 2 (2.7%)
  Any TEAE: 32
  Any TEAE at least possibly related to study medication: 9
  Any TEAE leading to a temporary stop of study medication: 2
  Any TEAE leading to permanent stop of study medication: 7
  Any TEAE with fatal outcome: 0
  Grade 3 TEAE: Anaemia: 0
  Grade 3 TEAE: Balance disorder: 0
  Grade 3 TEAE: Blood and lymphatic system disorders: 0
  Grade 3 TEAE: Blood creatine phosphokinase increased: 0
  Grade 3 TEAE: Bronchitis: 1 (1.4%)
  Grade 3 TEAE: Constipation: 0
  Grade 3 TEAE: Diarrhoea: 0
  Grade 3 TEAE: Fatigue: 1 (1.4%)
  Grade 3 TEAE: Gastrointestinal disorders: 0
  Grade 3 TEAE: General disorders and administration site conditions: 1 (1.4%)
  Grade 3 TEAE: Hyperkalaemia: 0
  Grade 3 TEAE: Infections and infestations: 1 (1.4%)
  Grade 3 TEAE: Investigations: 0
  Grade 3 TEAE: Lymphopenia: 0
  Grade 3 TEAE: Metabolism and nutrition disorders: 0
  Grade 3 TEAE: Nausea: 0
  Grade 3 TEAE: Nervous system disorders: 1 (1.4%)
  Grade 3 TEAE: Neutropenia: 0
  Grade 3 TEAE: Neutrophil count decreased: 0
  Grade 3 TEAE: Protein urine present: 0
  Grade 3 TEAE: Syncope: 1 (1.4%)
  Grade 3 TEAE: Thrombocytopenia: 0
  Grade 3 TEAE: Vomiting: 0
  TEAE: Abdominal discomfort: 0 n (%)
  TEAE: Abdominal pain: 0 n (%)
  TEAE: Abdominal pain upper: 0 n (%)
  TEAE: Abdominal tenderness: 0 n (%)
  TEAE: Alanine aminotransferase increased: 1 n (%)
  TEAE: All events: 32 n (%)
  TEAE: Anaemia: 0 n (%)
  TEAE: Aphthous stomatitis: 0 n (%)
  TEAE: Aspartate aminotransferase increased: 1 n (%)
  TEAE: Atrioventricular block first degree: 0 n (%)
  TEAE: Back pain: 1 n (%)
  TEAE: Bacterial vaginosis: 0 n (%)
  TEAE: Balance disorder: 0 n (%)
  TEAE: Blood and lymphatic system disorders: 3 n (%)
  TEAE: Blood bicarbonate decreased: 0 n (%)
  TEAE: Blood bilirubin decreased: 0 n (%)
  TEAE: Blood bilirubin increased: 1 n (%)
  TEAE: Blood creatine phosphokinase increased: 2 n (%)
  TEAE: Blood creatinine increased: 1 n (%)
  TEAE: Blood glucose increased: 1 n (%)
  TEAE: Blood potassium increased: 0 n (%)
  TEAE: Blood pressure diastolic increased: 0 n (%)
  TEAE: Blood urine: 1 n (%)
  TEAE: Bradycardia: 0 n (%)
  TEAE: Bronchitis: 1 n (%)
  TEAE: Cardiac disorders: 1 n (%)
  TEAE: Constipation: 0 n (%)
  TEAE: Contusion: 0 n (%)
  TEAE: Cough: 0 n (%)
  TEAE: Decreased appetite: 0 n (%)
  TEAE: Dehydration: 0 n (%)
  TEAE: Diabetes mellitus: 1 n (%)
  TEAE: Diarrhoea: 5 n (%)
  TEAE: Dizziness: 0 n (%)
  TEAE: Dry mouth: 0 n (%)
  TEAE: Dry skin: 0 n (%)
  TEAE: Dysgeusia: 0 n (%)
  TEAE: Dyspepsia: 1 n (%)
  TEAE: Dyspnoea: 1 n (%)
  TEAE: Dysuria: 0 n (%)
  TEAE: Ear and labyrinth disorders: 0 n (%)
  TEAE: Ear discomfort: 0 n (%)
  TEAE: Ecchymosis: 0 n (%)
  TEAE: Electrocardiogram ST segment depression: 0 n (%)
  TEAE: Enteritis: 0 n (%)
  TEAE: Fatigue: 1 n (%)
  TEAE: Fungal infection: 0 n (%)
  TEAE: Gamma-glutamyltransferase increased: 0 n (%)
  TEAE: Gastrointestinal disorders: 10 n (%)
  TEAE: General disorders and administration site conditions: 2 n (%)
  TEAE: Glomerular filtration rate decreased: 4 n (%)
  TEAE: Gout: 1 n (%)
  TEAE: HIV antibody positive: 0 n (%)
  TEAE: HIV test positive: 0 n (%)
  TEAE: Haematuria: 1 n (%)
  TEAE: Haemoglobin decreased: 2 n (%)
  TEAE: Haemoglobin increased: 0 n (%)
  TEAE: Headache: 2 n (%)
  TEAE: Hepatic enzyme increased: 0 n (%)
  TEAE: Hepatitis C: 1 n (%)
  TEAE: Herpes simplex: 0 n (%)
  TEAE: Hyperglycaemia: 0 n (%)
  TEAE: Hyperhidrosis: 0 n (%)
  TEAE: Hyperkalaemia: 0 n (%)
  TEAE: Hyperproteinaemia: 1 n (%)
  TEAE: Hypertension: 0 n (%)
  TEAE: Hyperuricaemia: 0 n (%)
  TEAE: Hypokalaemia: 0 n (%)
  TEAE: Hyponatraemia: 1 n (%)
  TEAE: Hypophosphataemia: 2 n (%)
  TEAE: Hypothermia: 1 n (%)
  TEAE: Increased appetite: 0 n (%)
  TEAE: Infections and infestations: 5 n (%)
  TEAE: Injury, poisoning and procedural complications: 0 n (%)
  TEAE: Insomnia: 2 n (%)
  TEAE: Investigations: 8 n (%)
  TEAE: Irritability: 0 n (%)
  TEAE: Labyrinthitis: 0 n (%)
  TEAE: Leukopenia: 0 n (%)
  TEAE: Lymph node pain: 1 n (%)
  TEAE: Lymphadenopathy: 1 n (%)
  TEAE: Lymphopenia: 0 n (%)
  TEAE: Metabolism and nutrition disorders: 4 n (%)
  TEAE: Micturition urgency: 0 n (%)
  TEAE: Middle ear effusion: 0 n (%)
  TEAE: Migraine: 0 n (%)
  TEAE: Muscle spasms: 0 n (%)
  TEAE: Musculoskeletal and connective tissue disorders: 2 n (%)
  TEAE: Musculoskeletal chest pain: 1 n (%)
  TEAE: Myalgia: 0 n (%)
  TEAE: Myocarditis: 0 n (%)
  TEAE: Nasal congestion: 0 n (%)
  TEAE: Nausea: 3 n (%)
  TEAE: Nephropathy: 0 n (%)
  TEAE: Nervous system disorders: 4 n (%)
  TEAE: Neutropenia: 0 n (%)
  TEAE: Neutrophil count decreased: 1 n (%)
  TEAE: Oedema peripheral: 0 n (%)
  TEAE: Oral herpes: 0 n (%)
  TEAE: Otitis media: 0 n (%)
  TEAE: Paraesthesia: 1 n (%)
  TEAE: Percussion test abnormal: 1 n (%)
  TEAE: Petechiae: 0 n (%)
  TEAE: Pharyngitis streptococcal: 0 n (%)
  TEAE: Pneumonia chlamydial: 0 n (%)
  TEAE: Protein urine: 1 n (%)
  TEAE: Protein urine present: 0 n (%)
  TEAE: Proteinuria: 3 n (%)
  TEAE: Pruritus: 0 n (%)
  TEAE: Psychiatric disorders: 3 n (%)
  TEAE: Rash: 0 n (%)
  TEAE: Red blood cells urine: 1 n (%)
  TEAE: Renal and urinary disorders: 6 n (%)
  TEAE: Renal failure: 1 n (%)
  TEAE: Renal failure chronic: 1 n (%)
  TEAE: Renal impairment: 1 n (%)
  TEAE: Respiratory, thoracic and mediastinal disorders: 1 n (%)
  TEAE: Rhonchi: 1 n (%)
  TEAE: Sensation of foreign body: 0 n (%)
  TEAE: Sinus bradycardia: 0 n (%)
  TEAE: Sinus congestion: 0 n (%)
  TEAE: Sinus tachycardia: 1 n (%)
  TEAE: Sinusitis: 3 n (%)
  TEAE: Skin and subcutaneous tissue disorders: 0 n (%)
  TEAE: Sleep disorder: 0 n (%)
  TEAE: Sleep terror: 1 n (%)
  TEAE: Syncope: 1 n (%)
  TEAE: Tachycardia: 0 n (%)
  TEAE: Thrombocytopenia: 1 n (%)
  TEAE: Tinnitus: 0 n (%)
  TEAE: Tongue discolouration: 1 n (%)
  TEAE: Tremor: 0 n (%)
  TEAE: Upper respiratory tract infection: 0 n (%)
  TEAE: Urinary tract infection: 0 n (%)
  TEAE: Urine ketone body present: 1 n (%)
  TEAE: Vascular disorders: 0 n (%)
  TEAE: Vertigo: 0 n (%)
  TEAE: Vomiting: 1 n (%)
  TEAE: Wheezing: 1 n (%)
  TEAE: White blood cell count decreased: 0 n (%)
  Worst grade 1 or 2 TEAE: 30
  Worst grade 3 TEAE: 2
  Worst grade 3 or 4 TEAE: 2
  Worst grade 4 TEAE: 0
600 mg
  Any Serious TEAE: 1 (1.4%)
  Any Serious TEAE at least possibly related to study medication: 0
  Any Severe (Grade 3) TEAE: 5 (6.8%)
